Reference: patent US20060129385A1, “Cholinergic therapy for individuals with learning disabilities” (priority 2002, published 2006)

Legend:
[1] = test system: individuals with Down's Syndrome; test: Test of Problem Solving (TOPS), 24 week open study of donepezil; format: in vivo, human
Method: (§1) In the current study, we specifically examined the effects of donepezil and tested the hypothesis that expressive language performance in individuals with Down's Syndrome would improve with donepezil treatment. Language performance was measured with two objective measures, the Test of Problem Solving [Zachman et al., 1984] and the Clinical Evaluation of Language Fundamentals-Revised [Semel et al., 1986].
Measures: The Test of Problem Solving [TOPS: Zachman et al., 1984]: The TOPS is an expressive language test that measures the ability to verbally identify reasonable solutions to problems presented via pictures. It has been used to assess pragmatic language ability in patients with AD. [Ripich et al., 1997]. The TOPS consists of 15 pictured scenarios with accompanying questions about each picture. The standard set of questions is designed to have the subject make inferences, to determine causes of particular events, to determine solutions to pictured problems, and to determine strategies for avoiding problems. The instrument was standardized on 1578 individuals (ages 6 years-0 months to 11 years-11 months). Age equivalent scores are provided for ages 3 years-5 months to 15 years-9 months. Validity and reliability data are available. TOPS raw scores for the overall [test as recommended by Powell, 1993] were determined by the average of two independent observers, one scoring onsite and a second scoring from audiotaped recordings of the test sessions.
(§2) Derivation of Language Level: Due to the absence of appropriate standardized measures for adults with DS, relative language level was determined by comparing subtest performance (raw scores) to the average performance level for five-year-olds. The five year-old level was selected because it is the lowest age level in which both tests provide normative data. For this study, TOPS performance was based on age equivalent scores.
(§3) Clinical Significance of Change: The clinical significance of the change in language performance following treatment was determined by comparing the difference in subject performance (between Baseline and treatment) to the amount of language improvement shown in one year by the average 5-year-old. For the TOPS, this index was the difference between the age equivalent score for children aged 5 years-0 months and the age equivalent score for children aged 6 years-0 months. For the CELF-R subtests, this index was difference between the mean raw scores for 5 year-olds and 6-year-olds.
Statistical Analyses: The main comparisons were changes from Baseline (week 0) assessed by repeated measures. […] Similarly, while we hypothesized an improvement in expressive language, the acceptable p-value was not adjusted to reflect a one-tailed analysis. P-values at or below 0.05 were viewed as significant. Changes on standardized measures were viewed as clinically significant if the magnitude of the observed change was substantial in comparison to the level of performance gain typically achieved by children in the 12 month period between age 5 and age 6. Across all measures, the performance gain between age 5 and age 6 is the highest rate of language gain recorded for any 12-month period.

[2] = test system: individuals with Down's Syndrome; test: Clinical Evaluation of Language Fundamentals-Revised (CELF-R), 24 week open study of donepezil; format: in vivo, human
Method: as §1
The Clinical Evaluation of Language Fundamentals-Revised (CELF-R: Semel et al., 1986]: The CELF-R is a diagnostic language test designed to assess language form and content, aspects of language generally regarded as fundamental to effective, oral—communication. Standardized expressive, receptive and overall language scores are derived from the summation of individual subtest scores. Typically, overall expressive and receptive language are evaluated by collapsing the subtest performance into a single receptive: or expressive language score. Individual subtest performance is analyzed for specific impairment within the broader expressive and receptive language domains. The instrument was standardized on 2,333 individuals (ages 5-0 to 16-11). Validity and reliability norms are available and adequate for each subtest.
as §2, §3
Statistical Analyses: The main comparisons were changes from Baseline (week 0) assessed by repeated measures. […] Similarly, while we hypothesized an improvement in expressive language, the acceptable p-value was not adjusted to reflect a one-tailed analysis. P-values at or below 0.05 were viewed as significant. […] Across all measures, the performance gain between age 5 and age 6 is the highest rate of language gain recorded for any 12-month period.

[3] = test system: individuals with Down's Syndrome
Method: Subjects: After obtaining IRB approval and written informed consent, 5 males and […] with DS (confirmed by karyotyping), between the ages of 20-41 years (mean age=29 years), were enrolled in the trial. All subjects were verbal, able to hear speech at conversational level, and able to ingest oral medication. […] All individuals were evaluated for thyroid disorders and for Vitamin B 12 deficiency within 6 months of entry into the trial. […] Subject IQs ranged from 40 to 60 (mean IQ=52). The IQs of four subjects were determined during the baseline visit because testing had not been performed in the last 10 years. The IQ's of the two youngest subjects were determined from school records.
Study Design: This was a 24 week open study at the General Clinical Outpatient Research Unit at Duke University in which subjects attended three sessions, Week 0 (Baseline), Week 12 (Treatment-12), and Week 24 (Termination). Due to scheduling limitations, the average first post-treatment visit was at Week 13 and the second post-treatment visit was at Week 25. A physical exam and language testing were completed at all sessions. A checklist for medication related adverse events was performed at Week 12 and at study termination. At the completion of the Baseline visit, donepezil was dosed orally at 5 mg once daily for 6 weeks. The dose was increased to 10 mg (two 5 mg tablets) daily for the remaining weeks if the 5 mg dose was well tolerated. This dosage schedule was based on experience from a previous trial [Kishnani et al 1999] and the donepezil package insert. Patients were monitored closely for safety and tolerability of the medication by regular phone calls in between scheduled visits. Two language measures were used, the Test of Problem Solving (TOPS) and the Clinical Evaluation of Language Fundamentals-Revised (CELF-R). The TOPS was completed at Baseline and at Weeks 12 and 24 of treatment. The CELF-R was completed at Baseline and at Week 24.

[4] = test system: DS patients; details: human, in vivo; cited from earlier work

With `COc1cc2c(cc1OC)C(=O)C(CC1CCN(Cc3ccccc3)CC1)C2` (stereo not shown) [donepezil] the “change in TOPS performance, Treatment-12 weeks vs. Termination” value ([1]; after 12 additional weeks of treatment (24 weeks), paired samples t=0.52, p=0.6313) was “No change”, the “overall TOPS performance gain” value ([1]; after 12 weeks of treatment vs Baseline, oral 5 mg once daily for 6 weeks, then 10 mg daily, adults with DS, paired t=4.5, p=0.0107) was 6.5 and the “overall TOPS performance gain” value ([1]; after 24 weeks of treatment (Termination) vs Baseline, oral 5 mg then 10 mg daily, paired t=1.10, p=0.0513) was 5.1. The “clinical significance: overall TOPS performance gain relative to gain expected by the average five-year-old in one year of development” value ([1]; after treatment) was “more than one-half”, the “performance on the TOPS, Baseline vs. Treatment-12 weeks” value ([1]; following 12 weeks of treatment, paired samples t=4.5, p=0.0107) was “significantly improved performance” and the “CELF-R subtests showing gains” value ([2]; following 24 weeks of donepezil treatment, n=5) was 5 of 6. For the same compound, the “significance of CELF-R subtest differences from baseline levels” value ([2]; following 24 weeks of treatment, p=0.15-0.23 in three expressive subtests and Word Classes) was “None of the differences was significantly different”, the “gain in language performance on the CELF-R subtests, High Language Group” value ([2]; individuals with higher language skills at Baseline, n=2, following treatment) was “large gains” and the “gain on the CELF-R language measures, Low Language Group” value ([2]; individuals with lower language skills at Baseline, n=3, following treatment) was “little gain”. The “subjects with mild cases of diarrhea” value ([3]; at the 5 mg dosage, each case improved spontaneously) was “Five of six subjects”, the “subjects reporting a transient decrease in appetite” value ([3]; on the 10 mg dosage, six subjects) was “one subject” and the “subjects reporting cramps for one day” value ([3]; six subjects) was “One subject”. The “adverse effect reported in DS patients” value [4] was “urinary incontinence”.
